Data as given in US12202843B2, “Muscarinic receptor agonists” (Nxera Pharma UK Limited, priority 2014, dated 2025).

Legend:
Assay type in all cases: cell-based
[1] = target: T1, human muscarinic M1 receptor (Homo sapiens, UniProt P11229); experiment: Alphascreen Surefire phospho-ERK1/2 functional assay, M1; conditions: for EC50: CHO cells stably expressing human M1, read-out: pEC50 M1 (converted); for % Emax cf. ACh, M1: CHO cells stably expressing human M1, relative to ACh
T1 sequence (P11229 1-460): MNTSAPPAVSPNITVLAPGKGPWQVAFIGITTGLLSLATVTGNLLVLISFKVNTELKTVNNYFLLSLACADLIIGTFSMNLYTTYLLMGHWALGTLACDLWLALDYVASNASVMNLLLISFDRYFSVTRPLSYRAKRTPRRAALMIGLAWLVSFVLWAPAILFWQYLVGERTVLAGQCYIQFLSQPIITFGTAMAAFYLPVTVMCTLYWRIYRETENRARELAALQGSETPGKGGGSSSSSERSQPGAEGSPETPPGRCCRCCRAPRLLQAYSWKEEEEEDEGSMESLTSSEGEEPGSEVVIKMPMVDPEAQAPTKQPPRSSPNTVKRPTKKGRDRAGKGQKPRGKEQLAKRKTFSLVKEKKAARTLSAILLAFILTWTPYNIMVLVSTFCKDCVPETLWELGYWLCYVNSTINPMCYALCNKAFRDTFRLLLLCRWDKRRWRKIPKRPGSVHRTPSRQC

[2] = target: T2, human muscarinic M2 receptor (Homo sapiens, UniProt P08172); experiment: Alphascreen Surefire phospho-ERK1/2 functional assay, M2; conditions: for EC50: CHO cells stably expressing human M2, read-out: pEC50 M2 (converted); for Emax: CHO, read-out: % Emax cf. ACh, M2, CHO cells stably expressing human M2, relative to ACh; for % Emax cf. ACh, M2: CHO cells stably expressing human M2, relative to ACh
T2 sequence (P08172 1-466): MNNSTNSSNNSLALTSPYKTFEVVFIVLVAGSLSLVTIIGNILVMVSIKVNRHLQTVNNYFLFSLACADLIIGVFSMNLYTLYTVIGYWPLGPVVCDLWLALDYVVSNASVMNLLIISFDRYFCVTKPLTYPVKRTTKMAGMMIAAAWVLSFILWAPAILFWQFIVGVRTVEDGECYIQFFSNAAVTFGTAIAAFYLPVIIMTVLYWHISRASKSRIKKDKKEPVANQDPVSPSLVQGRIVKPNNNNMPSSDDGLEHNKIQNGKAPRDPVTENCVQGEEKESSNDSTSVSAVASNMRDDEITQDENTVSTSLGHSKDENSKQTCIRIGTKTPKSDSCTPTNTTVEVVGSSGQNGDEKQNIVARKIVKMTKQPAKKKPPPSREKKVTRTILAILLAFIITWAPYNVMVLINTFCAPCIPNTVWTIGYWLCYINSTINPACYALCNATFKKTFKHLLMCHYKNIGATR
Description: (§1) ERK1/2 phosphorylation is a downstream consequence of both Gq/11 and Gi/o protein coupled receptor activation, making it highly suitable for the assessment of M1, M3 (Gq/11 coupled) and M2, M4 receptors (Gi/o coupled), rather than using different assay formats for different receptor subtypes. CHO cells stably expressing the human muscarinic M1, M2, M3 or M4 receptor were plated (25K/well) onto 96-well tissue culture plates in MEM-alpha+10% dialysed FBS. Once adhered, cells were serum-starved overnight. Agonist stimulation was performed by the addition of 5 μL agonist to the cells for 5 min (37° C.). Media was removed and 50 μL of lysis buffer added. […] Plates were incubated for 2 h with gentle agitation in the dark and then read on a PHERAstar plate reader.
(§2) pEC50 and Emax figures were calculated from the resulting data for each receptor subtype.

[3] = target: T3, human muscarinic M3 receptor (Homo sapiens, UniProt P20309); experiment: Alphascreen Surefire phospho-ERK1/2 functional assay, M3; conditions: for EC50: CHO cells stably expressing human M3, read-out: pEC50 M3 (converted); for Emax: CHO, read-out: % Emax cf. ACh, M3, CHO cells stably expressing human M3, relative to ACh; for % Emax cf. ACh, M3: CHO cells stably expressing human M3, relative to ACh
T3 construct: expressed in transfected cells
Description: as §1, §2

[4] = target: T4, human muscarinic M4 receptor (Homo sapiens, UniProt P08173); experiment: Alphascreen Surefire phospho-ERK1/2 functional assay, M4; conditions: for EC50: CHO cells stably expressing human M4, read-out: pEC50 M4 (converted); for % Emax cf. ACh, M4: CHO cells stably expressing human M4, relative to ACh; for Emax: CHO, read-out: % Emax cf. ACh, M4, CHO cells stably expressing human M4, relative to ACh
T4 construct: expressed in transfected cells
T4 sequence (P08173 1-479): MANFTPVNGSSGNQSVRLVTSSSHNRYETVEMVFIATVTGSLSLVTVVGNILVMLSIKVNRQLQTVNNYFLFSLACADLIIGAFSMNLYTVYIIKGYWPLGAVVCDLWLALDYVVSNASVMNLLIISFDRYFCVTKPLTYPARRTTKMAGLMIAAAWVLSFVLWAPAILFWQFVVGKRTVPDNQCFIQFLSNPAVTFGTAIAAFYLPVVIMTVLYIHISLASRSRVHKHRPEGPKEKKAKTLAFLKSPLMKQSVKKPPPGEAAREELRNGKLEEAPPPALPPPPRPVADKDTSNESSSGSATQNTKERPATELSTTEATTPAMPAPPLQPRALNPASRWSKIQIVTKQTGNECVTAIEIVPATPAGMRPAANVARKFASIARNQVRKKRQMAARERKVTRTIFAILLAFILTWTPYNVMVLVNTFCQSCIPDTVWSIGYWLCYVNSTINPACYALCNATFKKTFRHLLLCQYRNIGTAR

T3 sequence (P20309 whole entry): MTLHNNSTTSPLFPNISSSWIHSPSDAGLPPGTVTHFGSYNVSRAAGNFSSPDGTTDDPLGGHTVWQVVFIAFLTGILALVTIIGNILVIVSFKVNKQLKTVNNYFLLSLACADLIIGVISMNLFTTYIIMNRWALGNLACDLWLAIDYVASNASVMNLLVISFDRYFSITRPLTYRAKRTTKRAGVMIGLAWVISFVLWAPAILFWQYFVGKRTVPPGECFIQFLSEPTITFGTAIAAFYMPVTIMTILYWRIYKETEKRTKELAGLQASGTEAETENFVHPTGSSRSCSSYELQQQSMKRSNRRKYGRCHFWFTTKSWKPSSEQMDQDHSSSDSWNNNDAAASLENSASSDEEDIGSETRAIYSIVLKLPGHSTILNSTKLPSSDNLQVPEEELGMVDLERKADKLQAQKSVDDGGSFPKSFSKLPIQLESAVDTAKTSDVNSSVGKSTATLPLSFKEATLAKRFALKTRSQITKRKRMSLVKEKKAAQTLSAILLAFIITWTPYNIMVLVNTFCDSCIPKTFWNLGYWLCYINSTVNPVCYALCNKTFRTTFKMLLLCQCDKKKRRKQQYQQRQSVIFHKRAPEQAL

SMILES	EC50 [1] [nM]	EC50 [2] [µM]	Emax [2] [%]	EC50 [3] [µM]	EC50 [4] [nM]	also measured
[2H]C([2H])(C)OC(=O)N1C2CCC1CC(N1CCC3(CC1)CNC(=O)C3)C2 (single isomer, unassigned) [Example 2-30 Isomer 2, (1,1-^2H2)ethyl 3-(3-oxo-2,8-diazaspiro[4.5]dec-8-yl)-8-azabicyclo[3.2.1]octane-8-carboxylate]	31.6	> 20	9	> 20	79.4	% Emax cf. ACh, M1 ([1]; listed as 2-30 Isomer 2): 66%; Emax [3]: 16%; % Emax cf. ACh, M4 [4]: 29%
[2H]C([2H])([2H])COC(=O)N1C2CCC1CC(N1CCC3(CC1)CNC(=O)C3)C2 (single isomer, unassigned) [Example 2-31 Isomer 2]	25.1	> 20	11	> 20	25.1	% Emax cf. ACh, M1 ([1]; listed as 2-31 Isomer 2): 76%; Emax [3]: 8%; % Emax cf. ACh, M4 ([4]; listed as 2-31 Isomer 2): 26%
[2H]C([2H])([2H])C([2H])([2H])OC(=O)N1C2CCC1CC(N1CCC3(CC1)CNC(=O)C3)C2 (single isomer, unassigned) [Example 2-32 Isomer 1]	79.4	> 20	16	> 20	126	Emax ([1]; CHO, read-out: % Emax cf. ACh, M1, CHO cells stably expressing human M1, relative to ACh): 92%; % Emax cf. ACh, M3 ([3]; listed as 2-32 Isomer 1): 10%; Emax [4]: 40%
[2H]C([2H])([2H])C([2H])([2H])OC(=O)N1C2CCC1CC(N1CCC3(CC1)CNC(=O)C3)C2 (single isomer, unassigned) [Example 2-32 Isomer 2]	31.6	–	–	–	50.1	% Emax cf. ACh, M1 [1]: 77%; % Emax cf. ACh, M2 [2]: 15%; % Emax cf. ACh, M3 ([3]; listed as 2-32 Isomer 2): 1%; % Emax cf. ACh, M4 [4]: 48%
CCOC(=O)N1CC2CCC1CC2N1CCC2(CC1)CNC(=O)C2 (single isomer, unassigned) [Example 3-1 Isomer 1, ethyl 5-(3-oxo-2,8-diazaspiro[4.5]dec-8-yl)-2-azabicyclo[2.2.2]octane-2-carboxylate]	1.26	0.01	–	> 20	3.98	% Emax cf. ACh, M1 ([1]; listed as 3-1 Isomer 1): 111%; % Emax cf. ACh, M2 ([2]; listed as 3-1 Isomer 1): 63%; % Emax cf. ACh, M3 ([3]; listed as 3-1 Isomer 1): 6%; % Emax cf. ACh, M4 ([4]; listed as 3-1 Isomer 1): 61%
CCOC(=O)N1CC2CCC1CC2N1CCC2(CC1)CNC(=O)C2 (single isomer, unassigned) [Example 3-1 Isomer 2, ethyl 5-(3-oxo-2,8-diazaspiro[4.5]dec-8-yl)-2-azabicyclo[2.2.2]octane-2-carboxylate]	63.1	> 20	–	–	251	% Emax cf. ACh, M1 ([1]; listed as 3-1 Isomer 2): 94%; % Emax cf. ACh, M2 ([2]; listed as 3-1 Isomer 2): 11%; % Emax cf. ACh, M3 ([3]; listed as 3-1 Isomer 2): 1%; % Emax cf. ACh, M4 ([4]; listed as 3-1 Isomer 2): 31%
CCOC(=O)N1CC2CCC1CC2N1CCC2(CC1)CNC(=O)C2 (single isomer, unassigned) [Example 3-1 Isomer 3, ethyl 5-(3-oxo-2,8-diazaspiro[4.5]dec-8-yl)-2-azabicyclo[2.2.2]octane-2-carboxylate]	39.8	> 20	–	–	158	% Emax cf. ACh, M1 ([1]; listed as 3-1 Isomer 3): 101%; % Emax cf. ACh, M2 ([2]; listed as 3-1 Isomer 3): 17%; % Emax cf. ACh, M3 ([3]; listed as 3-1 Isomer 3): 16%; % Emax cf. ACh, M4 ([4]; listed as 3-1 Isomer 3): 41%
CCOC(=O)N1C2CCCC1CC(N1CCC3(CC1)CNC(=O)C3)C2 (single isomer, unassigned) [Example 5-1 Isomer 1, ethyl 3-(3-oxo-2,8-diazaspiro[4.5]dec-8-yl)-9-azabicyclo[3.3.1]nonane-9-carboxylate]	316	7.94	17	> 20	251	% Emax cf. ACh, M1 ([1]; listed as 5-1 Isomer 1): 131%; Emax [3]: 8%; % Emax cf. ACh, M4 ([4]; listed as 5-1 Isomer 1): 25%
CCOC(=O)N1C2CCCC1CC(N1CCC3(CC1)CNC(=O)C3)C2 (single isomer, unassigned) [Example 5-1 Isomer 2, ethyl 3-(3-oxo-2,8-diazaspiro[4.5]dec-8-yl)-9-azabicyclo[3.3.1]nonane-9-carboxylate]	158	> 20	–	–	> 20000	% Emax cf. ACh, M1 ([1]; listed as 5-1 Isomer 2): 77%; % Emax cf. ACh, M2 [2]: 14%; % Emax cf. ACh, M3 [3]: 6%; % Emax cf. ACh, M4 ([4]; listed as 5-1 Isomer 2): 8%
C#CCOC(=O)N1C2CCCC1CC(N1CCC3(CC1)CNC(=O)C3)C2 (single isomer, unassigned) [Example 5-2 Isomer 1, prop-2-yn-1-yl 3-(3-oxo-2,8-diazaspiro[4.5]dec-8-yl)-9-azabicyclo[3.3.1]nonane-9-carboxylate]	100	> 20	3	> 20	79.4	% Emax cf. ACh, M1 ([1]; listed as 5-2 Isomer 1): 78%; % Emax cf. ACh, M3 ([3]; listed as 5-2 Isomer 1): 9%; Emax [4]: 37%
C#CCOC(=O)N1C2CCCC1CC(N1CCC3(CC1)CNC(=O)C3)C2 (single isomer, unassigned) [Example 5-2 Isomer 2, prop-2-yn-1-yl 3-(3-oxo-2,8-diazaspiro[4.5]dec-8-yl)-9-azabicyclo[3.3.1]nonane-9-carboxylate]	–	–	–	–	63.1	% Emax cf. ACh, M1 ([1]; listed as 5-2 Isomer 2): 48%; % Emax cf. ACh, M2 [2]: 3%; % Emax cf. ACh, M3 ([3]; listed as 5-2 Isomer 2): 4%; % Emax cf. ACh, M4 [4]: 20%
